Experiment [1] deals with Balb/c mice. The settings on record: mouse, in vivo.
Experiment [2] concerns A549 cells. Type of experiment: cell-based.
Experiment [3] has as its system Balb/c mice lung. Particulars: mouse, in vivo.
The test system of experiment [4] is Balb/c mice lung. The settings on record: mouse, in vivo. This is another data set of the same source.
For experiment [5], the system named is Balb/c mice lung. The settings on record: mouse, in vivo. The source holds these as a separate data set.
For experiment [6], the system named is A549 cells. Type of experiment: cell-based. This is another data set of the same source.
Experiment [7] deals with LC3. Further details: species or system Balb/c mice. The settings on record: mouse, in vivo.
For experiment [8], the system named is Balb/c mice lung. Particulars: mouse, in vivo. This is another data set of the same source.
Experiment [9] concerns A549 cells. Type of experiment: cell-based. This is another data set of the same source.

The source of these data is patent US20120238566A1, “USE OF CELL AUTOPHAGY (TYPE II CELL APOPTOSIS) INHIBITORS” (priority 2009, published 2012).

“Also recorded” adds a separate entry of the source. Where two headings read alike, the source gives them in different places.

With `Cn1cnc(N)c2ncnc1-2` [3-MA, 3-methyladenine], in experiment [1], the “survival curve of mice” value is reported as “can significantly relieve the death of mice; also recorded: has effect on delaying the death of mice”. For the same molecule, the “percentage of cells with EGFP-LC3 agglutination” value in experiment [2] is “can be relieved”. The “counts of inflammatory cells in lung pathological sections” value in [3] is on record as “reduced the augmentation of the counts inflammatory cells”. The “lung injury, pathological sections” value in experiment [4] was “has some effect on ameliorating the lung injury”. Moreover, the lung wet/dry ratio result in experiment [5] is “decreased the augmentation of wet/dry ratio”; in experiment [5] (ip) it was “relieved the increased lung wet/dry ratio”. The “survival rate of A549 cells” value in experiment [6] was “decreases the cell death; also recorded: can significantly reduce cell death”. The “content of LC3 II in mice lung tissue (ratio to β-actin)” value in [7] is given as “relieved the occurrence of autophagy”. In addition, the lung elasticity entry in [8] was “relieves the changes of lung elasticity; also recorded: has some effect on relieving the induced injury”. In addition, in experiment [9], the “percentage of A549 cells with autophagy induced by PAMAM G3, electron microscope” value is listed as “can be relieved; also recorded: reduced the percentage of cells with autophagy”.

As to `C[S+]([O-])c1ccc(-c2nc(-c3ccncc3)c(-c3ccc(F)cc3)[nH]2)cc1` (stereo not shown) [SB203580], in experiment [3], the “counts of inflammatory cells in lung pathological sections” value is recorded as “reduced the counts of infiltrated inflammatory cells; also recorded: reduced the augmentation of infiltrated inflammatory cells”. The “lung injury, pathological sections” value in experiment [4] is reported as “has some effect on ameliorating the lung injury; also recorded: has some effect on amelioratiing the lung injury”. Also, the “cell autophagy induced by inactivated H5N1 avian influenza virus, electron microscope” value in experiment [9] is on record as “reduced cell autophagy; also recorded: can effectively inhibit the occurrence of autophagy”.
